Our source for the IC50 values is patent publication US20250064789A1, “KETOAMIDE DERIVATIVES AND PHARMACEUTICAL USES THEREOF” (priority 2022, published 2025).

For orientation: IC50 means the concentration that inhibits the measured activity by half.

SMILES strings stand for the structures.

One assay has as its target recombinant SARS-CoV-2 M^pro (Severe acute respiratory syndrome coronavirus 2 (2019-nCoV) (SARS-CoV-2), UniProt P0DTD1). The experiment in a line: Inhibition of SARS-CoV-2 M^pro enzyme activity (fluorescent substrate assay). Type of assay: biochemical. As to conditions: inhibition of SARS-CoV-2 M^pro enzyme activity; values given in μM; read-out: IC50.
Regarding `COC[C@@H](NC(=O)C1CCCC(F)(F)C1)C(=O)N[C@H](Cc1ccccc1)C(=O)C(=O)NCc1nnc(C)o1` (some centres unmarked) [Compound 559], the IC50 is greater than 2.5 µM.

Turning to `COC[C@@H](NC(=O)C1CCCC(F)(F)C1)C(=O)N[C@H](Cc1ccccc1)C(=O)C(=O)NCc1ncon1` (some centres unmarked) [Compound 562], the IC50 is greater than 2.5 µM.

With `COC[C@@H](NC(=O)C1CCCC(F)(F)C1)C(=O)N[C@H](Cc1ccccc1)C(=O)C(=O)NCc1ncno1` (some centres unmarked) [Compound 563], the IC50 was greater than 2.5 µM.

Still in this assay, the particulars now being: inhibition of SARS-CoV-2 M^pro enzyme activity; values in nM; read-out: IC50.
Turning to `O=C(Cn1cc(C2CCC(F)(F)CC2)cn1)N[C@H](Cc1ccccc1)C(=O)C(=O)NCc1nccs1` [Compound 513], the IC50 came to 0.0304 ± 0.0008 µM.

Regarding `N#Cc1cc(F)cc(-c2nc(CC(=O)N[C@H](Cc3ccccc3)C(=O)C(=O)NCc3nccs3)cs2)c1` [Compound 514], the IC50 stood at 0.0568 ± 0.0004 µM. As for `Cc1cc(-c2cc(Cl)cc(C#N)c2)nn1CC(=O)N[C@H](Cc1ccccc1)C(=O)C(=O)NCc1nccs1` [Compound 515], the IC50 was 0.0262 ± 0.0003 µM. As for `O=C(Cc1noc(-c2ccc(F)c(F)c2)n1)N[C@H](Cc1ccccc1)C(=O)C(=O)NCc1nccs1` [Compound 516, (R)-3-(2-(5-(3,4-difluorophenyl)-1,2,4-oxadiazol-3-yl)acetylamino)-2-oxo-4-phenyl-N-(thiazole-2-ylmethyl)butyramide], the IC50 turned out to be 0.033 ± 0.0019 µM. Same read-out and setting: next, `Cc1cc(-c2cc(Cl)cc(C#N)c2)nn1C1(C(=O)N[C@H](Cc2ccccc2)C(=O)C(=O)NCc2nccs2)CC1` [Compound 517]: 0.0562 ± 0.0032 µM; `N#Cc1cc(F)cc(N2CC(=O)N(CC(=O)N[C@H](Cc3ccccc3)C(=O)C(=O)NCc3nccs3)C2=O)c1` [Compound 518, (R)-3-(2-(3-(3-cyano-5-fluorophenyl)-2,5-dioxoimidazolidin-1-yl)acetylamino)-2-oxo-4-phenyl-N-(thiazole-2-ylmethyl) butyramide]: 0.2485 ± 0.0014 µM. With `O=C(CN1C(=O)CN(c2ccc(F)c(Cl)c2)C1=O)N[C@H](Cc1ccccc1)C(=O)C(=O)NCc1nccs1` [Compound 519], the IC50 is 0.0327 ± 0.0031 µM. Same read-out and setting: the same measure for `O=C(Cc1noc(-c2cc(F)ccc2F)n1)N[C@H](Cc1ccccc1)C(=O)C(=O)NCc1nccs1` [Compound 520]: 0.1613 ± 0.0012 µM.

`O=C(Cc1noc(-c2ccc(Cl)cc2F)n1)N[C@H](Cc1ccccc1)C(=O)C(=O)NCc1nccs1` [Compound 521]: the IC50 came to 0.441 ± 0.0045 µM. Still for that read-out and setting: the same measure for `O=C(CN1C(=O)CN(c2cc(F)c(F)c(F)c2)C1=O)N[C@H](Cc1ccccc1)C(=O)C(=O)NCc1nccs1` [Compound 522]: 0.0747 ± 0.0042 µM; for `O=C(CN1C(=O)CN(c2cc(F)cc(F)c2)C1=O)N[C@H](Cc1ccccc1)C(=O)C(=O)NCc1nccs1` [Compound 523]: 0.123 ± 0.0051 µM.

Turning to `O=C(Cc1noc(-c2ccc(F)c(C(F)(F)F)c2)n1)N[C@H](Cc1ccccc1)C(=O)C(=O)NCc1nccs1` [Compound 524], the IC50 came out at 0.0328 ± 0.0032 µM. On the same count and under the same terms, the same measure for `O=C(CN1C(=O)CN(c2ccc(F)cc2)C1=O)N[C@H](Cc1ccccc1)C(=O)C(=O)NCc1nccs1` [Compound 525]: 0.0845 ± 0.0018 µM; for `O=C(Cc1noc(-c2ccc(F)c(Cl)c2)n1)N[C@H](Cc1ccccc1)C(=O)C(=O)NCc1nccs1` [Compound 526]: 0.0284 ± 0.0015 µM; for `O=C(CN1C(=O)CN(c2cccc(Cl)c2)C1=O)N[C@H](Cc1ccccc1)C(=O)C(=O)NCc1nccs1` [Compound 527]: 0.0443 ± 0.0011 µM. The same measure, in the same setting: the same measure for `CC(C)(C(=O)N[C@H](Cc1ccccc1)C(=O)C(=O)NCc1nccs1)n1cc(-c2cccc(F)c2)cn1` [Compound 528]: 0.0508 ± 0.001 µM. As to `CC(C)(C(=O)N[C@H](Cc1ccccc1)C(=O)C(=O)NCc1nccs1)n1cc(-c2cccc(OC(F)(F)F)c2)cn1` [Compound 529], the IC50 was found to be 0.2245 ± 0.0013 µM. Still for that read-out and setting: the same measure for `O=C(Cn1nc(-c2ccc(F)cc2)cc1C(F)(F)F)N[C@H](Cc1ccccc1)C(=O)C(=O)NCc1nccs1` [Compound 530]: 0.0325 ± 0.0011 µM; for `O=C(NCc1nccs1)C(=O)[C@@H](Cc1ccccc1)NC(=O)n1nc(C(F)(F)F)cc1-c1ccc(F)cc1` [Compound 531]: 0.598 ± 0.0028 µM; for `O=C(Cn1cc(-c2ccccc2F)nn1)N[C@H](Cc1ccccc1)C(=O)C(=O)NCc1nccs1` [Compound 532, (R)-3-(2-(4-(2-fluorophenyl)-1H-1,2,3-triazol-1-yl)acetamido)-2-oxo-4-phenyl-N-(thiazole-2-ylmethyl)butyramide]: 0.6245 ± 0.0026 µM. Still for that read-out and setting: the same measure for `O=C(Cc1noc(C2CCC(F)(F)CC2)n1)N[C@H](Cc1ccccc1)C(=O)C(=O)NCc1nccs1` [Compound 533]: 0.069 ± 0.0069 µM. Still for that read-out and setting: the same measure for `CC[C@@H](NC(=O)C1CCC(F)(F)CC1)C(=O)N[C@H](Cc1ccccc1)C(=O)C(=O)NCc1nccs1` [Compound 535]: 0.0357 ± 0.00017 µM; for `CC(C)[C@@H](NC(=O)C1CCC(F)(F)CC1)C(=O)N[C@H](Cc1ccccc1)C(=O)C(=O)NCc1nccs1` [Compound 536]: 0.0248 ± 0.0003 µM. In the case of `CC(C)(NC(=O)C1CCC(F)(F)CC1)C(=O)N[C@H](Cc1ccccc1)C(=O)C(=O)NCc1nccs1` [Compound 537], the IC50 was determined as 0.0895 ± 0.0015 µM. Still for that read-out and setting: the same measure for `O=C(NCc1nccs1)C(=O)[C@@H](Cc1ccccc1)NC(=O)C1(NC(=O)C2CCC(F)(F)CC2)CC1` [Compound 538]: 0.0335 ± 0.0015 µM. The same measure, in the same setting: next, `O=C(NCc1nccs1)C(=O)[C@@H](Cc1ccccc1)NC(=O)C1(NC(=O)C2CCC(F)(F)CC2)CCC1` [Compound 539]: 0.0218 ± 0.0005 µM. Still for that read-out and setting: next, `O=C(NCc1nccs1)C(=O)[C@@H](Cc1ccccc1)NC(=O)C1(NC(=O)C2CCC(F)(F)CC2)CC(F)(F)C1` [Compound 540]: 0.0269 ± 0.0001 µM. For the compound `O=C(NCc1nccs1)C(=O)[C@@H](Cc1ccccc1)NC(=O)C1(NC(=O)C2CCC(F)(F)CC2)CCCC1` [Compound 541], the 50% inhibitory concentration (IC50) is 0.0518 ± 0.0014 µM. Still for that read-out and setting: next, `O=C(NCc1nccs1)C(=O)[C@@H](Cc1ccccc1)NC(=O)C1(NC(=O)C2CCC(F)(F)CC2)CCCCC1` [Compound 542]: 0.0524 ± 0.007 µM; `O=C(NCc1nccs1)C(=O)[C@@H](Cc1ccccc1)NC(=O)[C@H](NC(=O)C1CCC(F)(F)CC1)C1CC1` [Compound 543]: 0.107 ± 0.0013 µM; `COC[C@@H](NC(=O)C1CCCC(F)(F)C1)C(=O)N[C@H](Cc1ccccc1)C(=O)C(=O)NCc1cscn1` (some centres unmarked) [Compound 544]: 0.0225 ± 0.0009 µM. The same measure, in the same setting: the same measure for `O=C(NCc1nccs1)C(=O)[C@@H](Cc1ccccc1)NC(=O)C1(NC(=O)C2CCCC(F)(F)C2)CC(F)(F)C1` (some centres unmarked) [Compound 545]: 0.0269 ± 0.0002 µM. Consider `O=C(NCc1nccs1)C(=O)[C@@H](Cc1ccccc1)NC(=O)C1(NC(=O)C2CCC(F)(F)C2)CC(F)(F)C1` (some centres unmarked) [Compound 546], for which the IC50 is 0.0717 ± 0.0071 µM. On the same count and under the same terms, the same measure for `O=C(CC1CC(F)(F)C1)NC1(C(=O)N[C@H](Cc2ccccc2)C(=O)C(=O)NCc2nccs2)CC(F)(F)C1` [Compound 547]: 0.0251 ± 0.001 µM. Same read-out and setting: the same measure for `COC[C@@H](NC(=O)N1CCCC(F)(F)C1)C(=O)N[C@H](Cc1ccccc1)C(=O)C(=O)NCc1nccs1` [Compound 548]: 0.4104 ± 0.001 µM. On the same count and under the same terms, next, `COC[C@@H](NC(=O)NC1CC(F)(F)C1)C(=O)N[C@H](Cc1ccccc1)C(=O)C(=O)NCc1nccs1` [Compound 549]: 0.0212 ± 0.0006 µM; `COC[C@@H](NC(=O)NC1CCC(F)(F)CC1)C(=O)N[C@H](Cc1ccccc1)C(=O)C(=O)NCc1nccs1` [Compound 551]: 0.0233 ± 0.0031 µM. For the compound `COC[C@@H](NC(=O)N1CC(F)(F)C(F)(F)C1)C(=O)N[C@H](Cc1ccccc1)C(=O)C(=O)NCc1nccs1` [Compound 552], the IC50 turned out to be 0.2009 ± 0.0016 µM. Still for that read-out and setting: the same measure for `COC[C@@H](NC(=O)OC1CC(F)(F)C1)C(=O)N[C@H](Cc1ccccc1)C(=O)C(=O)NCc1nccs1` [Compound 553]: 0.0188 ± 0.0046 µM; for `C[C@@H](NCC1CCC(F)(F)CC1)C(=O)N[C@H](Cc1ccccc1)C(=O)C(=O)NCc1nccs1` [Compound 554]: 0.8901 ± 0.0013 µM.

`O=C(NCc1nccs1)C(=O)[C@@H](Cc1ccccc1)NC(=O)C1CC1C(=O)NC1CC(F)(F)C1` (some centres unmarked) [Compound 555]: the half-maximal inhibitory concentration (IC50) was 0.4773 ± 0.0041 µM. On the same count and under the same terms, next, `CC1(C)C(C(=O)NC2CC(F)(F)C2)C1C(=O)N[C@H](Cc1ccccc1)C(=O)C(=O)NCc1nccs1` (some centres unmarked) [Compound 556]: 0.2035 ± 0.0006 µM. On the same count and under the same terms, next, `COC[C@@H](NC(=O)C1CCCC(F)(F)C1)C(=O)N[C@H](Cc1ccccc1)C(=O)C(=O)NCc1ccccn1` (some centres unmarked) [Compound 557]: 0.0261 ± 0.0004 µM; `COC[C@@H](NC(=O)C1CCCC(F)(F)C1)C(=O)N[C@H](Cc1ccccc1)C(=O)C(=O)NCc1cocn1` (some centres unmarked) [Compound 560]: 0.0221 ± 0.0007 µM; `COC[C@@H](NC(=O)C1CCCC(F)(F)C1)C(=O)N[C@H](Cc1ccccc1)C(=O)C(=O)NCc1ncsn1` (some centres unmarked) [Compound 564]: 0.774 ± 0.0088 µM. On the same count and under the same terms, the same measure for `COC[C@@H](NC(=O)C1CCCC(F)(F)C1)C(=O)N[C@H](Cc1cccc(Cl)c1)C(=O)C(=O)NCc1nccs1` (some centres unmarked) [Compound 566]: 0.0332 ± 0.0023 µM.

Consider `O=C(NCc1nccs1)C(=O)[C@@H](Cc1ccccc1)NC(=O)[C@@H](CO)NC(=O)C1CCCC(F)(F)C1` (some centres unmarked) [Compound 567], for which the IC50 is 0.0636 ± 0.0029 µM. The same measure, in the same setting: the same measure for `CS(=O)(=O)CC[C@@H](NC(=O)C1CCCC(F)(F)C1)C(=O)N[C@H](Cc1ccccc1)C(=O)C(=O)NCc1nccs1` (some centres unmarked) [Compound 568]: 0.0707 ± 0.0018 µM. Same read-out and setting: the same measure for `CS(=O)(=O)CC[C@@H](NC(=O)CC1CC(F)(F)C1)C(=O)N[C@H](Cc1ccccc1)C(=O)C(=O)NCc1nccs1` [Compound 569]: 0.0188 ± 0.0009 µM; for `O=C(NCc1nccs1)C(=O)[C@@H](Cc1ccccc1)NC(=O)[C@@H](CO)NC(=O)C1CCCC(F)(F)C1` (some centres unmarked) [Compound 570]: 0.0406 ± 0.002 µM; for `O=C(O)C[C@@H](NC(=O)CC1CC(F)(F)C1)C(=O)N[C@H](Cc1ccccc1)C(=O)C(=O)NCc1nccs1` [Compound 572]: 0.0338 ± 0.0025 µM. On the same count and under the same terms, the same measure for `COC(=O)C[C@@H](NC(=O)CC1CC(F)(F)C1)C(=O)N[C@H](Cc1ccccc1)C(=O)C(=O)NCc1nccs1` [Compound 574]: 0.0144 ± 0.0008 µM; for `CNC(=O)C[C@@H](NC(=O)CC1CC(F)(F)C1)C(=O)N[C@H](Cc1ccccc1)C(=O)C(=O)NCc1nccs1` [Compound 575]: 0.0235 ± 0.0009 µM.
